Measured values: patent publication US11427783B2, “Perfuming compositions” (Firmenich SA, priority 2016, dated 2022)
Like-named read-outs stand apart in the source and are kept apart here.

Experiments:
[1] = Log P (n-octanol/water) of perfuming compounds
[2] = Volatility of perfuming compounds in air; assay type: physicochemical; details: for Volatility: Table 5, perfuming compounds having a green note
[3] = Table 6, perfuming compounds having a fruity note
[4] = n-octanol/water, perfuming compounds having a fruity note (Table 6)
[5] = Table 8, perfuming compounds having a sweet note
[6] = Table 9, perfuming compounds having a gourmand note
[7] = Table 5, perfuming compounds having a green note

**Q.** What does the source list for CC(C)C(=O)OCCOc1ccccc1 [2-phenoxyethyl 2-methylpropanoate]?
**A.** logP (physchem; n-octanol/water): 2.82; Log P (n-octanol/water) [1, 3]: 2.82

**Q.** With CC(=O)OCC=C(C)C [3-methyl-2-buten-1-yl acetate] as the compound, how does the logP (physchem; n-octanol/water) read?
**A.** 2.19

**Q.** What about the “Log P (n-octanol/water)” value [1, 4] of the same compound?
**A.** 2.19

**Q.** What does the source list for CC(C)(O)CCC1CCCCC1 [4-CYCLOHEXYL-2-METHYL-2-BUTANOL]?
**A.** logP (physchem; n-octanol/water): 3.93; Log P (n-octanol/water) ([1]; Table 7, citrus note): 3.93

**Q.** With C=CCCCCCCCCO [9-DECEN-1-OL] as the compound, how does the logP (physchem; n-octanol/water) read?
**A.** 3.7

**Q.** What about the “Log P (n-octanol/water)” value ([1]; Table 7, citrus note) of the same compound?
**A.** 3.70

**Q.** What does the source list for CCCCCC/C(C=O)=C\c1ccccc1 [(2E)-2-benzylideneoctanal]?
**A.** logP (physchem; n-octanol/water): 4.86; Log P (n-octanol/water) [1, 3]: 4.86

**Q.** What does the source list for CC(=O)OC/C=C(/C)CCC=C(C)C [(2Z)-3,7-dimethyl-2,6-octadien-1-yl acetate]?
**A.** logP (physchem; n-octanol/water): 3.81; Log P (n-octanol/water) [1, 3]: 3.81

**Q.** With CC/C=C\CCOC(=O)C/C=C\CC [(3Z)-3-hexen-1-yl (3Z)-3-hexenoate] as the compound, how does the logP (physchem; n-octanol/water) read?
**A.** 4.22

**Q.** What about the “Log P (n-octanol/water)” value [1, 5] of the same compound?
**A.** 4.22

**Q.** And the “Log P (n-octanol/water)” value [1, 6]?
**A.** 4.22

**Q.** What about the “Log P (n-octanol/water)” value [1, 4] of the same compound?
**A.** 4.22

**Q.** For CC/C=C\CCOC(=O)c1ccccc1 [(3Z)-3-hexen-1-yl benzoate], which logP (physchem; n-octanol/water) is on record?
**A.** 4.21

**Q.** And the “Log P (n-octanol/water)” value [1, 3]?
**A.** 4.21

**Q.** What about the “Log P (n-octanol/water)” value ([1]; Table 7, citrus note) of the same compound?
**A.** 4.21

**Q.** For CC/C=C\CCOC(=O)CCC [(3Z)-3-hexen-1-yl butyrate], which logP (physchem; n-octanol/water) is on record?
**A.** 3.59

**Q.** And the “Log P (n-octanol/water)” value [1, 4]?
**A.** 3.59

**Q.** Which logP (physchem; n-octanol/water) does the source give for CC/C=C\CCOC(=O)OC [(3Z)-hex-3-en-1-yl methyl carbonate] here?
**A.** 2.97

**Q.** And the “Log P (n-octanol/water)” value [1, 4]?
**A.** 2.97

**Q.** Which results are given for O=C1CCCCCCC/C=C/CCCCCCO1 [(10E)-oxacycloheptadec-10-en-2-one]?
**A.** logP (physchem; n-octanol/water): 6.15; Log P (n-octanol/water) ([1]; Table 7, citrus note): 6.15

**Q.** With C/C=C/c1ccc(OC(C)=O)c(OC)c1 [(E)-2-METHOXY-4-(1-PROPENYL)PHENYL ACETATE] as the compound, how does the logP (physchem; n-octanol/water) read?
**A.** 2.56

**Q.** And the “Log P (n-octanol/water)” value ([1]; Table 7, citrus note)?
**A.** 2.56

**Q.** With CCCCC/C(C=O)=C\c1ccccc1 [(E)-2-PENTYL-3-PHENYL-2-PROPENAL] as the compound, how does the logP (physchem; n-octanol/water) read?
**A.** 4.3

**Q.** And the “Log P (n-octanol/water)” value ([1]; Table 7, citrus note)?
**A.** 4.30

**Q.** With O=Cc1ccccc1 [BENZALDEHYDE] as the compound, how does the logP (physchem) read?
**A.** 1.33

**Q.** What about the “Log P (n-octanol/water)” value [1, 5] of the same compound?
**A.** 1.33

**Q.** For O=C(OCc1ccccc1)c1ccccc1 [BENZYL BENZOATE], which logP (physchem; n-octanol/water) is on record?
**A.** 3.64

**Q.** And the “Log P (n-octanol/water)” value ([1]; Table 7, citrus note)?
**A.** 3.64

**Q.** Which logP (physchem; n-octanol/water) does the source give for CCC(=O)OCc1ccccc1 [BENZYL PROPANOATE] here?
**A.** 2.35

**Q.** And the “Log P (n-octanol/water)” value [1, 3]?
**A.** 2.35

**Q.** For CCCC(=O)OCC [ETHYL BUTANOATE], which logP (physchem; n-octanol/water) is on record?
**A.** 2.03

**Q.** And the “Log P (n-octanol/water)” value [1, 4]?
**A.** 2.03

**Q.** For CCCCCC(=O)OCC [ETHYL HEXANOATE], which logP (physchem; n-octanol/water) is on record?
**A.** 3.12

**Q.** And the “Log P (n-octanol/water)” value [1, 5]?
**A.** 3.12

**Q.** What about the “Log P (n-octanol/water)” value [1, 6] of the same compound?
**A.** 3.12

**Q.** What about the “Log P (n-octanol/water)” value [1, 4] of the same compound?
**A.** 3.12

**Q.** Which logP (physchem; n-octanol/water) does the source give for CCCCCCOC(=O)c1ccccc1O [HEXYL 2-HYDROXYBENZOATE] here?
**A.** 5.55

**Q.** And the “Log P (n-octanol/water)” value [1, 3]?
**A.** 5.55

**Q.** And the “Log P (n-octanol/water)” value ([1]; Table 7, citrus note)?
**A.** 5.55

**Q.** For CCCCCCOC(C)=O [HEXYL ACETATE], which logP (physchem; n-octanol/water) is on record?
**A.** 3.09

**Q.** What about the “Log P (n-octanol/water)” value [1, 4] of the same compound?
**A.** 3.09

**Q.** For CCCCCCOC(=O)CCCCC [HEXYL HEXANOATE], which logP (physchem; n-octanol/water) is on record?
**A.** 5.56

**Q.** What about the “Volatility (μg/l air)” value [2, 3] of the same compound?
**A.** 105.52 μg/l air

**Q.** What does the source list for CCCCCC(=O)OC [METHYL HEXANOATE]?
**A.** logP (physchem; n-octanol/water): 2.65; Log P (n-octanol/water) [1, 4]: 2.65

**Q.** What does the source list for CCCCCCCC=O [OCTANAL]?
**A.** logP (physchem; n-octanol/water): 2.94; Volatility [2]: 4147.61 μg/l air

**Q.** Which Volatility [2] does the source give for CCC(C)c1nccnc1OC (stereo not drawn) [PYRAZOBUTYLE] here?
**A.** 1617.21 μg/l air

**Q.** What about the “Log P (n-octanol/water)” value [1, 7] of the same compound?
**A.** 2.88

**Q.** Which results are given for O=Cc1ccc2c(c1)OCO2 [benzo[d][1,3]dioxole-5-carbaldehyde]?
**A.** logP (physchem): 1.52; Volatility (μg/l air) [2, 6]: 61.82 μg/l air

**Q.** For CCCCC/C=C\C=C\C(=O)OCC [ethyl (2E,4Z)-2,4-decadienoate], which logP (physchem; n-octanol/water) is on record?
**A.** 4.69

**Q.** What about the “Log P (n-octanol/water)” value [1, 3] of the same compound?
**A.** 4.69

**Q.** Which logP (physchem; n-octanol/water) does the source give for CCCCCCCC(=O)OCC [ethyl octanoate] here?
**A.** 4.2

**Q.** What about the Volatility [2] of the same compound?
**A.** 800.05 μg/l air

**Q.** Which results are given for CCCCCCOC(=O)C(C)C [hexyl 2-methylpropanoate]?
**A.** logP (physchem; n-octanol/water): 4.31; Log P (n-octanol/water) [1, 4]: 4.31

**Q.** What does the source list for C/C=C(\C)C(=O)OCCCCCC [hexyl (2E)-2-methyl-2-butenoate]?
**A.** logP (physchem; n-octanol/water): 4.8; Log P (n-octanol/water) [1, 5]: 4.80; Log P (n-octanol/water) [1, 4]: 4.80

**Q.** For CCCCCC/C=C/C(=O)OC [methyl (2E)-2-nonenoate], which logP (physchem; n-octanol/water) is on record?
**A.** 4.05

**Q.** And the “Log P (n-octanol/water)” value [1, 4]?
**A.** 4.05

**Q.** For (2,2-DIMETHOXYETHYL)BENZENE, which Volatility [2] is on record?
**A.** 456.97 μg/l air

**Q.** And the “Log P (n-octanol/water)” value [1, 7]?
**A.** 2.10
